Laboratory results reported in US20260041677A1, “COMPOSITIONS AND METHODS FOR TREATING ADENOID CYSTIC CARCINOMA” (ELEVAR THERAPEUTICS, INC., priority 2022, published 2026).

Test system: recurrent or metastatic (R/M) adenoid cystic carcinoma (ACC)
Experiment: Phase 2 study of rivoceranib in R/M ACC: overall survival, intention-to-treat population
Assay type: in vivo, human
Conditions: 700 mg QD start
From the text: Objectives: Primary objectives were to evaluate safety & tolerability, efficacy by objective response rate (ORR), best overall response (BOR), time to response, duration of response, disease control rate, and duration of disease control. Secondary objectives were to evaluate efficacy as measured by overall survival, progression-free survival and event-free survival. The primary efficacy endpoint was the ORR, defined as the proportion of patients who achieved confirmed complete response (CR) or partial response (PR) per Response Evaluation Criteria in Solid Tumors (RECIST) Version 1.1 (V1.1). The secondary efficacy endpoints were duration of response (DoR) assessed by the investigator and a blinded independent review committee (BIRC), progression-free survival (PFS) assessed at 6 months, 12 months, and 2 years by investigator and BIRC, Time to Progression (TTP) assessed by investigator and BIRC, and overall survival (OS) assessed at 1 and 2 years. Exploratory efficacy endpoints include ORR per CHOI response criteria (based on the journal article, Choi et al., Correlation of computed tomography and positron emission tomography in patients with metastatic gastrointestinal stromal tumor treated at a single institution with imatinib mesylate: proposal of new computed tomography response criteria. J Clin Oncol. 2007; 25(13): 1753-1759) by a blinded independent review […] (BIRC) and disease control rate (DCR) per RECIST V1.1 by Investigator and BIRC. Except for CHOI response criteria, all response endpoints were assessed per RECIST V1.1 by Investigator and BIRC.
The OS was calculated by Overall Survival (months)=12*(Date of death−First dose of rivoceranib+1)/365.25. Median OS were not evaluable. In general, OS rates at 6, 9 and 12 months were similar regardless of prior VEGFR inhibitor treatment or prior systemic anticancer treatment.

**Q.** What does the source list for `N#CC1(c2ccc(NC(=O)c3cccnc3NCc3ccncc3)cc2)CCCC1` [Rivoceranib, N-[4-(1-cyanocyclopentyl)phenyl]-2-{[(pyridin-4-yl)methyl]amino}pyridine-3-carboxamide]?
**A.** OS rate at 6 months (ITT population): 94.7%; OS rate at 9 months (ITT population): 83.5%; OS landmark 12-months, % (95% CI) (ITT, Total N = 80): 74.5 (62.5-83.1) %; OS landmark 18-months, % (95% CI) (ITT, Total N = 80): 61.7 (48.3-72.5) %; OS landmark 12-months, % (95% CI) (ITT, VEGFRi-naïve N = 66): 77.4 (64.2-86.2) %; OS landmark 18-months, % (95% CI) (ITT, VEGFRi-naïve N = 66): 66.0 (51.1-77.3) %; Median OS (ITT, VEGFRi-treated N = 14): 17.5 months; OS landmark 12-months, % (ITT, VEGFRi-treated N = 14): 62.9%; OS landmark 18-months, % (ITT, VEGFRi-treated N = 14): 45.8%
